Results from ChEMBL document CHEMBL4184210, “Optimization of novel monobactams with activity against carbapenem-resistant Enterobacteriaceae - Identification of LYS228” (Bioorg Med Chem Lett, 2018).
Values after ≈ are worked out from the molar mass of the structure shown.

Experiments:
Escherichia coli [1] = test: Antimicrobial activity against Escherichia coli expressing beta-lactamase KPC-2 by CLSI broth microdilution method; type: functional
Escherichia coli [2] = test: microbe, parasite or virus in culture
Description: Antimicrobial activity against Escherichia coli expressing beta-lactamase SHV-12 by CLSI broth microdilution method

Escherichia coli [3] = test: microbe, parasite or virus in culture; remark: listed apart in the source
Description: Antimicrobial activity against Escherichia coli expressing beta-lactamase CTXM-15 by CLSI broth microdilution method

Escherichia coli [4] = test: microbe, parasite or virus in culture; remark: listed apart in the source
Description: Antimicrobial activity against Escherichia coli expressing beta-lactamase TEM-10 by CLSI broth microdilution method

Escherichia coli [5] = test: microbe, parasite or virus in culture; remark: listed apart in the source
Description: Antimicrobial activity against Escherichia coli expressing beta-lactamase AmpC by CLSI broth microdilution method

Escherichia coli [6] = test: microbe, parasite or virus in culture; remark: listed apart in the source
Description: Antimicrobial activity against wild type Escherichia coli by CLSI broth microdilution method

Escherichia coli [7] = test: microbe, parasite or virus in culture; remark: listed apart in the source
Description: Antimicrobial activity against Escherichia coli expressing beta-lactamase CMY-2 by CLSI broth microdilution method

[8] = Chemical stability in pH 7.4 potassium phosphate buffer assessed as half life for compound hydrolysis at 37 degC by UPLC and mass spectrometry; type: physicochemical
Escherichia coli [9] = test: Antimicrobial activity against Escherichia coli expressing beta-lactamase NDM-1 by CLSI broth microdilution method; type: functional

| Structure (SMILES) | MIC (Escherichia coli [1]) | MIC (Escherichia coli [2]) | MIC (Escherichia coli [3]) | MIC (Escherichia coli [4]) | MIC (Escherichia coli [5]) | MIC (Escherichia coli [6]) | MIC (Escherichia coli [7]) | half-life [8] | MIC (Escherichia coli [9]) |
| --- | --- | --- | --- | --- | --- | --- | --- | --- | --- |
| Nc1nc(/C(=N/OC2(C(=O)O)CC2)C(=O)N[C@@H]2C(=O)N(S(=O)(=O)O)[C@@H]2Cn2cncn2)cs1 (stereo in doubt) | 0.25 µg/mL (≈ 0.5 µM) | 1 µg/mL (≈ 2 µM) | 0.125 µg/mL (≈ 0.25 µM) | 0.5 µg/mL (≈ 0.999 µM) | 1 µg/mL (≈ 2 µM) | 0.125 µg/mL (≈ 0.25 µM) | 1 µg/mL (≈ 2 µM) | – | – |
| CC(C)(O/N=C(\C(=O)N[C@@H]1C(=O)N(S(=O)(=O)O)[C@@H]1Cn1cc(NC(=O)C[N+](C)(C)C)nn1)c1csc(N)n1)C(=O)O | 2 µg/mL | 8 µg/mL | 2 µg/mL | 8 µg/mL | 2 µg/mL | 1 µg/mL | 8 µg/mL | > 37 h | – |
| C[C@@H](O)[C@H]1C(=O)N2C(C(=O)O)=C(SCCN=CN)C[C@H]12 [IMIPENEM ANHYDROUS] | – | – | – | – | – | – | – | 46 h | – |
| CC(C)(O/N=C(\C(=O)N[C@@H]1C(=O)N(S(=O)(=O)O)[C@@H]1CN1CCNC1=O)c1csc(N)n1)C(=O)O (stereo in doubt) | 1 µg/mL (≈ 1.92 µM) | 1 µg/mL (≈ 1.92 µM) | 1 µg/mL (≈ 1.92 µM) | 4 µg/mL (≈ 7.7 µM) | 2 µg/mL (≈ 3.85 µM) | 0.5 µg/mL (≈ 0.962 µM) | – | > 1000 h | 1 µg/mL (≈ 1.92 µM) |
| CC(C)(O/N=C(\C(=O)N[C@@H]1C(=O)N(S(=O)(=O)O)[C@@H]1Cn1cc(CNC(=N)N)nn1)c1csc(N)n1)C(=O)O (stereo in doubt) | 0.5 µg/mL (≈ 0.872 µM) | 1 µg/mL (≈ 1.74 µM) | 0.25 µg/mL (≈ 0.436 µM) | 1 µg/mL (≈ 1.74 µM) | 1 µg/mL (≈ 1.74 µM) | 0.25 µg/mL (≈ 0.436 µM) | 0.5 µg/mL (≈ 0.872 µM) | > 37 h | – |
| CC(C)(O/N=C(\C(=O)N[C@@H]1C(=O)N(S(=O)(=O)O)[C@@H]1Cn1cc(CN)nn1)c1csc(N)n1)C(=O)O (stereo in doubt) | 2 µg/mL (≈ 3.76 µM) | 4 µg/mL (≈ 7.53 µM) | 1 µg/mL (≈ 1.88 µM) | 2 µg/mL (≈ 3.76 µM) | 1 µg/mL (≈ 1.88 µM) | 1 µg/mL (≈ 1.88 µM) | 1 µg/mL (≈ 1.88 µM) | > 37 h | – |
| C[C@@H]1CN(C[C@@H]2[C@H](NC(=O)/C(=N\OC(C)(C)C(=O)O)c3csc(N)n3)C(=O)N2S(=O)(=O)O)C(=O)O1 (stereo in doubt) | 1 µg/mL (≈ 1.87 µM) | 1 µg/mL (≈ 1.87 µM) | 1 µg/mL (≈ 1.87 µM) | 8 µg/mL (≈ 15 µM) | 2 µg/mL (≈ 3.74 µM) | 1 µg/mL (≈ 1.87 µM) | 4 µg/mL (≈ 7.48 µM) | > 37 h | – |
| Cc1ncnn1C[C@@H]1[C@H](NC(=O)/C(=N\OC(C)(C)C(=O)O)c2csc(N)n2)C(=O)N1S(=O)(=O)O (stereo in doubt) | 2 µg/mL (≈ 3.87 µM) | 4 µg/mL (≈ 7.74 µM) | 4 µg/mL (≈ 7.74 µM) | 8 µg/mL (≈ 15.5 µM) | 8 µg/mL (≈ 15.5 µM) | 4 µg/mL (≈ 7.74 µM) | 8 µg/mL (≈ 15.5 µM) | > 37 h | – |
| CC(C)(O/N=C(\C(=O)N[C@@H]1C(=O)N(S(=O)(=O)O)[C@@H]1Cn1cc(CO)nn1)c1csc(N)n1)C(=O)O (stereo in doubt) | 4 µg/mL (≈ 7.51 µM) | 16 µg/mL (≈ 30 µM) | 1 µg/mL (≈ 1.88 µM) | 8 µg/mL (≈ 15 µM) | 4 µg/mL (≈ 7.51 µM) | 0.5 µg/mL (≈ 0.939 µM) | 4 µg/mL (≈ 7.51 µM) | > 37 h | – |
| CC(C)(O/N=C(\C(=O)N[C@@H]1C(=O)N(S(=O)(=O)O)[C@@H]1CN1CCCC1=O)c1csc(N)n1)C(=O)O (stereo in doubt) | 2 µg/mL (≈ 3.86 µM) | 2 µg/mL (≈ 3.86 µM) | 2 µg/mL (≈ 3.86 µM) | 4 µg/mL (≈ 7.71 µM) | 16 µg/mL (≈ 30.9 µM) | 1 µg/mL (≈ 1.93 µM) | – | > 1000 h | 1 µg/mL (≈ 1.93 µM) |
| CC(C)(O/N=C(\C(=O)N[C@@H]1C(=O)N(S(=O)(=O)O)[C@@H]1CN1CCC1=O)c1csc(N)n1)C(=O)O (stereo in doubt) | 4 µg/mL (≈ 7.93 µM) | 8 µg/mL (≈ 15.9 µM) | 4 µg/mL (≈ 7.93 µM) | 16 µg/mL (≈ 31.7 µM) | 64 µg/mL (≈ 127 µM) | 2 µg/mL (≈ 3.96 µM) | – | > 1000 h | 2 µg/mL (≈ 3.96 µM) |
| CC(C)(O/N=C(\C(=O)N[C@@H]1C(=O)N(S(=O)(=O)O)[C@@H]1Cn1cc(C(=O)O)nn1)c1csc(N)n1)C(=O)O (stereo in doubt) | 16 µg/mL (≈ 29.3 µM) | 16 µg/mL (≈ 29.3 µM) | 16 µg/mL (≈ 29.3 µM) | 32 µg/mL (≈ 58.6 µM) | 32 µg/mL (≈ 58.6 µM) | 32 µg/mL (≈ 58.6 µM) | 64 µg/mL (≈ 117 µM) | > 37 h | – |
| CC(C)(O/N=C(\C(=O)N[C@@H]1C(=O)N(S(=O)(=O)O)[C@@H]1CN1C[C@H](CO)OC1=O)c1csc(N)n1)C(=O)O (stereo in doubt) | 4 µg/mL (≈ 7.27 µM) | 2 µg/mL (≈ 3.63 µM) | 1 µg/mL (≈ 1.82 µM) | > 64 µg/mL | 2 µg/mL (≈ 3.63 µM) | 2 µg/mL (≈ 3.63 µM) | 4 µg/mL (≈ 7.27 µM) | > 37 h | – |
| CC(C)(O/N=C(\C(=O)N[C@@H]1C(=O)N(S(=O)(=O)O)[C@@H]1CN1C[C@H](CN)OC1=O)c1csc(N)n1)C(=O)O (stereo in doubt) | 1 µg/mL (≈ 1.82 µM) | 1 µg/mL (≈ 1.82 µM) | 1 µg/mL (≈ 1.82 µM) | 8 µg/mL (≈ 14.6 µM) | 1 µg/mL (≈ 1.82 µM) | 1 µg/mL (≈ 1.82 µM) | 2 µg/mL (≈ 3.64 µM) | > 37 h | – |
